Test results: the Kinase Knowledgebase extract (Sharma et al. 2016)
In brackets after ≈: the same amount, converted by molar mass.

Key:
EGFR = EGFR (UniProt P00533); conditions: for inhibition: concentration not given here
EGFR (human) [1] = biological target: EGFR (human) (UniProt P00533); conditions: mda-mb-435
EGFR (human) [2] = biological target: EGFR (human) (UniProt P00533); conditions: sw 620
EGFR (human) [3] = biological target: EGFR (human) (UniProt P00533); conditions: sk-br-3
EGFR (human) [4] = biological target: EGFR (human) (UniProt P00533); conditions: a431
EGFR (human) [5] = biological target: EGFR (human) (UniProt P00533); conditions: 3t3
EGFR (human) [6] = biological target: EGFR (human) (UniProt P00533); conditions: a2780
EGFR (human) [7] = biological target: EGFR (human) (UniProt P00533); conditions: ddp

Sequence of EGFR (human) (P00533 whole entry, looked up): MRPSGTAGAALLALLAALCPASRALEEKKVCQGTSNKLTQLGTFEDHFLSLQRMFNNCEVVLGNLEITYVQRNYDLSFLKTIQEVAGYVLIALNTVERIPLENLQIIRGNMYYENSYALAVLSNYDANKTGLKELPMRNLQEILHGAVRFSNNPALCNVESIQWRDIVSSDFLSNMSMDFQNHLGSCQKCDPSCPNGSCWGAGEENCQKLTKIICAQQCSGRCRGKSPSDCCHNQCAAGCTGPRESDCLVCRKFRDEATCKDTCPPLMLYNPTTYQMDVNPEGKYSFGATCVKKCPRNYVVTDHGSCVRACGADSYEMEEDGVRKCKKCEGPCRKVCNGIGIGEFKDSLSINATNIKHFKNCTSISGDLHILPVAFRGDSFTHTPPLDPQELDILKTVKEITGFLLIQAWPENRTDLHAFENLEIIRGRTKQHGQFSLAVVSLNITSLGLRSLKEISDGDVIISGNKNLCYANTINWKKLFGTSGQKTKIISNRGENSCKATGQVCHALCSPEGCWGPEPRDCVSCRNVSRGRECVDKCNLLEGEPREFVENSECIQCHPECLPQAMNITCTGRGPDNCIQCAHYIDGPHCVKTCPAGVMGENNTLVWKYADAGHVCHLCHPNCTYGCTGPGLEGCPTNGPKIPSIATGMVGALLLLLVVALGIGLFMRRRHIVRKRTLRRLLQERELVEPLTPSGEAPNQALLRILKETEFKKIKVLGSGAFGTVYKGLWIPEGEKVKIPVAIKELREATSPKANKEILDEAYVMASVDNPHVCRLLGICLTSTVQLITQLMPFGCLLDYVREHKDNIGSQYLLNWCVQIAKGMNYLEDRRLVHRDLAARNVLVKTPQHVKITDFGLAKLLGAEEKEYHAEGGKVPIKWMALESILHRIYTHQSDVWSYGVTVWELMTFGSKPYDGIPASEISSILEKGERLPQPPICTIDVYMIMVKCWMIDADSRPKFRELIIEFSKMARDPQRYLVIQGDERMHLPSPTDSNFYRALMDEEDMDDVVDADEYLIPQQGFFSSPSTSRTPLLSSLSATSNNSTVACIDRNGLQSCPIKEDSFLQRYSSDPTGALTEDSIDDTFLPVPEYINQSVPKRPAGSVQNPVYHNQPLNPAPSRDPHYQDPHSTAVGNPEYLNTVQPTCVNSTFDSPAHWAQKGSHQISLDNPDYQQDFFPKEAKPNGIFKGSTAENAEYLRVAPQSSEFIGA
Sequence of EGFR (P00533 whole entry, looked up): as above

Row | IC50 (EGFR (human) [1]) [µg/mL] | IC50 (EGFR (human) [2]) [µg/mL] | IC50 (EGFR (human) [3]) [µg/mL] | IC50 (EGFR (human) [5]) [µg/mL] | SMILES | inhibition (EGFR) [%] | IC50 (EGFR (human) [4]) [µg/mL] | further results
1 |  |  |  |  | COc1cc2c(Nc3ccc4cn[nH]c4c3)c(C#N)cnc2cc1OCCN(C)C | 0 |  | 
2 |  |  |  |  | COc1cc2ncc(C#N)c(Nc3ccc4[nH]ncc4c3)c2cc1OC | 0 |  | 
3 |  |  |  |  | CCOc1cc2ncc(C#N)c(Nc3ccc4c(c3)NCC4)c2cc1OCC | 6 |  | IC50 (EGFR): > 10000 nM
4 |  |  |  |  | COc1cc2ncc(C#N)c(Nc3ccc4[nH]c(=O)sc4c3)c2cc1OC | 0 |  | 
5 |  |  |  |  | COc1cc2ncc(C#N)c(Nc3cccc4ncccc34)c2cc1OC | 0 |  | 
6 | 0.235 (≈ 0.6 µM) | 0.411 (≈ 1.05 µM) | 0.281 (≈ 0.718 µM) | 0.853 (≈ 2.18 µM) | CCOc1cc2ncc(C#N)c(Nc3ccc4c(c3)OCCO4)c2cc1OCC |  |  | 
7 | 0.352 (≈ 0.943 µM) | < 0.0005 | > 0.294 | 0.525 (≈ 1.41 µM) | CCOc1cc2ncc(C#N)c(Nc3ccc4c(c3)CCC4)c2cc1OCC |  |  | 
8 |  |  |  |  | COc1cc2ncc(C#N)c(Nc3ccc4[nH]ccc4c3)c2cc1OC |  |  | IC50 (EGFR): 1.5 to 4 nM
9 | 0.028 (≈ 0.0723 µM) |  | 0.0281 (≈ 0.0725 µM) | 0.0923 (≈ 0.238 µM) | CCOc1cc2ncc(C#N)c(Nc3ccc4c(c3)CCC4=O)c2cc1OCC |  | 0.0244 (≈ 0.063 µM) | 
10 | > 5 | 2.92 (≈ 6.98 µM) | > 5 | > 5 | CCOc1cc2ncc(C#N)c(Nc3ccc4[nH]c(=O)oc(=O)c4c3)c2cc1OCC |  | > 5 | 
11 |  |  |  |  | Cn1ccnc1Sc1ccc(Nc2c(C#N)cnc3ccc(/C=C/C(N)=O)cc23)cc1Cl |  |  | IC50 (EGFR): 10 nM
12 | 2.04 (≈ 4.72 µM) | > 5 | > 5 | > 5 | COCCOc1cc2ncc(C#N)c(Nc3ccc4cn[nH]c4c3)c2cc1OCCOC |  |  | 
13 |  |  |  |  | COc1cc2ncc(C#N)c(Nc3cccc4cnccc34)c2cc1OC | 0 |  | 
14 |  | 0.325 (≈ 0.782 µM) | 0.429 (≈ 1.03 µM) |  | CCOc1cc2ncc(C#N)c(Nc3ccc4c(C)cc(=O)oc4c3)c2cc1OCC |  | 0.369 (≈ 0.888 µM) | IC50 (EGFR (human) [6]): 0.27 µg/mL (≈ 0.65 µM); IC50 (EGFR (human) [7]): 0.249 µg/mL (≈ 0.599 µM)
15 |  |  |  |  | COc1cc2ncc(C#N)c(Nc3ccc(O)c4ncccc34)c2cc1OC | 0 |  | 
16 | 0.0033 (≈ 0.00783 µM) | 0.146 (≈ 0.346 µM) | 0.336 (≈ 0.797 µM) | 0.392 (≈ 0.93 µM) | CCOc1cc2ncc(C#N)c(Nc3ccc4c(c3)S(=O)(=O)C=C4)c2cc1OCC |  |  | 
17 | 2.63 (≈ 7.31 µM) | 4.31 (≈ 12 µM) | 2.09 (≈ 5.83 µM) | 3.22 (≈ 8.96 µM) | CCOc1cc2c(Nc3ccc4cn[nH]c4c3)c(C#N)cnc2cc1OC |  |  | 
18 | > 5 | > 5 | > 5 | > 5 | CCOc1cc2ncc(C#N)c(Nc3ccc4c(=O)[nH][nH]c(=O)c4c3)c2cc1OCC |  | > 5 | 

Row | SMILES | IC50 (EGFR (human) [1]) [µg/mL] | IC50 (EGFR (human) [2]) [µg/mL] | IC50 (EGFR (human) [3]) [µg/mL] | IC50 (EGFR (human) [5]) [µg/mL] | inhibition (EGFR) [%] | IC50 (EGFR (human) [4]) [µg/mL] | further results
19 | CCOc1cc2ncc(C#N)c(Nc3ccc4c(c3)C(=O)NCC(=O)N4C)c2cc1OCC | > 5 | > 5 | > 5 |  |  | > 5 | 
20 | CCOc1cc2ncc(C#N)c(Nc3ccc4cn[nH]c4c3)c2cc1OCC | 0.02 (≈ 0.0536 µM) | 0.033 (≈ 0.0884 µM) | 0.016 (≈ 0.0428 µM) |  |  | 0.025 (≈ 0.0669 µM) | IC50 (EGFR (human) [6]): 0.032 µg/mL (≈ 0.0857 µM); IC50 (EGFR (human) [7]): 0.036 µg/mL (≈ 0.0964 µM)
21 | CCOc1cc2ncc(C#N)c(Nc3ccc4cc[nH]c4c3)c2cc1OCC | 0.073 to 0.365 (≈ 0.196 to 0.98 µM) | 0.286 to 0.326 (≈ 0.768 to 0.875 µM) | 0.0374 to 0.18 (≈ 0.1 to 0.483 µM) |  |  | 0.123 to 0.216 (≈ 0.33 to 0.58 µM) | IC50 (EGFR (human) [6]): 0.231 µg/mL (≈ 0.62 µM); IC50 (EGFR (human) [7]): 0.313 µg/mL (≈ 0.84 µM)
22 | CCOc1cc2ncc(C#N)c(Nc3ccc4c(c3)C(=O)OC4)c2cc1OCC | 3.4 (≈ 8.74 µM) | 1.56 (≈ 4.02 µM) | > 5 |  |  | > 5 | 
23 | CCOc1cc2ncc(C#N)c(Nc3ccc4c[nH]nc4c3)c2cc1OC | 0.0359 (≈ 0.0999 µM) | 0.0212 (≈ 0.059 µM) | 0.022 (≈ 0.0612 µM) |  |  |  | 
